Molecules are shown by their SMILES.

Holding throughout (experiment): Electrical cell-substrate impedance sensing
Holding throughout (format): cell-based

The target in test [1] is T1, recombinant EP1 receptor (Homo sapiens, UniProt P34995).
T1 sequence (P34995 1-402): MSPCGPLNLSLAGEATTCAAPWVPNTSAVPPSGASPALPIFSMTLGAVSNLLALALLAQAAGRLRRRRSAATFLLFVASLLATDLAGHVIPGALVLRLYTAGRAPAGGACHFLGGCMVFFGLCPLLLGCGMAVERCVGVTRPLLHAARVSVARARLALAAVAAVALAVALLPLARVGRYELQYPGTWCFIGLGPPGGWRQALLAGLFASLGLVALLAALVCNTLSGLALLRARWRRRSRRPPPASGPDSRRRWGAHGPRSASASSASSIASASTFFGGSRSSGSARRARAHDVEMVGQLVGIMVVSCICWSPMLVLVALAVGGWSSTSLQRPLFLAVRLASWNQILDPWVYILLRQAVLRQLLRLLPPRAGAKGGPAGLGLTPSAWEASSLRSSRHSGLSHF
To be noted: ECIS, EP1 expressed in CHO cells.

The target in test [2] is T2, recombinant EP3 receptor (Homo sapiens, UniProt P43115).
T2 sequence (P43115 1-390): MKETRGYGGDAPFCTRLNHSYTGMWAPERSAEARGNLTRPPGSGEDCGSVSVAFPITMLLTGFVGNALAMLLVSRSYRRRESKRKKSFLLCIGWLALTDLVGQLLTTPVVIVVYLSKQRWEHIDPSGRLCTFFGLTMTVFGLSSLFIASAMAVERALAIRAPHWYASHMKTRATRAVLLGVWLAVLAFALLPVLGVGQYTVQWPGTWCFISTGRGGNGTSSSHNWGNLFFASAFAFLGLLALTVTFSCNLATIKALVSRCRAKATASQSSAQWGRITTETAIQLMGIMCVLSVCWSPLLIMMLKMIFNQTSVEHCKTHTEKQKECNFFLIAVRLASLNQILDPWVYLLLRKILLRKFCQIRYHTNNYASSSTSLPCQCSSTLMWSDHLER
The settings on record: ECIS, EP3 expressed in CHO cells.

Test [3] relates to recombinant EP4 receptor. To be noted: ECIS, EP4 expressed in CHO cells.

Turning to `O=C(CCC/C=C\C[C@H]1C(=O)C[C@@H](O)[C@@H]1/C=C/[C@@H](O)CCc1ccccc1)NCCO` [12a], the “Activation of EP1 receptor (cell impedance)” value (shortened to “Activation of EP1 receptor”) in test [1] is “did not activate”. The “Activation of EP3 receptor (cell impedance)” value (from here on “Activation of EP3 receptor”) in test [2] is reported as “did not activate”. Besides, the “Activation of EP4 receptor (cell impedance)” value (“Activation of EP4 receptor” for short) in test [3] is given as “did not activate”.
Consider `CCCCC[C@H](O)/C=C/[C@H]1[C@H](O)CC(=O)[C@@H]1C/C=C\CCCC(=O)NCCO` [PGE2-EA, prostaglandin-ethanolamide], for which, in test [1], the “Activation of EP1 receptor” value is “did not activate”. Also, the “Activation of EP3 receptor” value in test [2] is recorded as “did not activate”. Moreover, the “Activation of EP4 receptor” value in test [3] is listed as “did not activate”.
Turning to `CCCCC[C@H](O)/C=C/[C@H]1[C@H](O)CC(=O)[C@@H]1C/C=C\CCCC(=O)O` [PGE2], the “Activation of EP1 receptor” value in test [1] is on record as “rapid change in impedance”. Further, in test [2], the “Activation of EP3 receptor” value is reported as “rapid change in impedance”. Further, the “Activation of EP4 receptor” value in test [3] is listed as “rapid change in impedance”.
